Laboratory results taken from the NIST ThermoML archive (doi:10.1016/j.jct.2019.06.028).

Experiments:
[1] = xn = mol fraction of the nth substance listed; conditions: 101 kPa, Liquid, Vibrating tube method
[2] = 101 kPa, Liquid, Vibrating tube method

CC(N)=O [ethanamide] + O
mass density [kg/m3], [1]
Conditions	278.15 K	288.15 K	298.15 K	308.15 K	323.15 K
x1 = 0.0045	1001.13	1000.13	997.95	994.84	988.72
x1 = 0.00696	1001.77	1000.68	998.45	995.28	989.09
x1 = 0.01255	1003.21	1001.93	999.55	996.27	989.94
x1 = 0.0221	1005.68	1004.08	1001.45	997.97	991.4
x1 = 0.03704	1009.47	1007.37	1004.39	1000.6	993.65
x1 = 0.04992	1012.61	1010.12	1006.82	1002.79	995.48
x1 = 0.0607	1015.11	1012.3	1008.75	1004.54	996.95
x1 = 0.07958	1019.24	1015.92	1011.95	1007.37	999.36
x1 = 0.09463	1022.32	1018.65	1014.35	1009.49	1001.16
x1 = 0.1128	1025.82	1021.71	1017.06	1011.89	1003.22
x1 = 0.1325	1029.34	1024.81	1019.79	1014.32	1005.31
x1 = 0.159	1033.54	1028.5	1023.07	1017.25	1007.78
x1 = 0.1991	1038.57	1032.99	1027.09	1020.83	1010.87
x1 = 0.2503	1043.75	1037.61	1031.18	1024.52	1013.96
x1 = 0.3039	–	1041.06	1034.29	1027.28	1016.34
x1 = 0.3456	–	1043.19	1036.18	1028.97	1017.76
x1 = 0.3875	–	–	1037.52	1030.2	1018.81

O [water]
[2]
Conditions	mass density [kg/m3]
278.15 K	999.96
323.15 K	988.03

O [water] + CC(N)=O
[1], x2 = 0
Conditions	mass density [kg/m3]
278.15 K	999.96
323.15 K	988.03
